# Data published in patent US8877741B2, “Pyrrolidine derivatives, pharmaceutical compositions and uses thereof” (Boehringer Ingelheim International GmbH, priority 2013, dated 2014).
# Target: human ACC2 (Homo sapiens (Human), UniProt O00763)
# Test: ACC2 assay, spectrophotometric 384 well assay (NADH-linked kinetic method)
# Type: biochemical
# Conditions: human ACC2 construct lacking the 128 N-terminal amino acids; coupled lactate dehydrogenase/pyruvate kinase reaction, 340 nm, 25° C.
# Outline: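 ADP formation was monitored as NADH consumption at 340 nm for 15 min at 25 °C, using baculovirus-expressed human ACC2 missing its first 128 amino acids, with 500 μM ATP and 2000 μM each of acetyl-CoA and NADH (final). IC50 was fitted by non-linear regression on low-control-subtracted slopes.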
# human ACC2, sequence (O00763 129-2458): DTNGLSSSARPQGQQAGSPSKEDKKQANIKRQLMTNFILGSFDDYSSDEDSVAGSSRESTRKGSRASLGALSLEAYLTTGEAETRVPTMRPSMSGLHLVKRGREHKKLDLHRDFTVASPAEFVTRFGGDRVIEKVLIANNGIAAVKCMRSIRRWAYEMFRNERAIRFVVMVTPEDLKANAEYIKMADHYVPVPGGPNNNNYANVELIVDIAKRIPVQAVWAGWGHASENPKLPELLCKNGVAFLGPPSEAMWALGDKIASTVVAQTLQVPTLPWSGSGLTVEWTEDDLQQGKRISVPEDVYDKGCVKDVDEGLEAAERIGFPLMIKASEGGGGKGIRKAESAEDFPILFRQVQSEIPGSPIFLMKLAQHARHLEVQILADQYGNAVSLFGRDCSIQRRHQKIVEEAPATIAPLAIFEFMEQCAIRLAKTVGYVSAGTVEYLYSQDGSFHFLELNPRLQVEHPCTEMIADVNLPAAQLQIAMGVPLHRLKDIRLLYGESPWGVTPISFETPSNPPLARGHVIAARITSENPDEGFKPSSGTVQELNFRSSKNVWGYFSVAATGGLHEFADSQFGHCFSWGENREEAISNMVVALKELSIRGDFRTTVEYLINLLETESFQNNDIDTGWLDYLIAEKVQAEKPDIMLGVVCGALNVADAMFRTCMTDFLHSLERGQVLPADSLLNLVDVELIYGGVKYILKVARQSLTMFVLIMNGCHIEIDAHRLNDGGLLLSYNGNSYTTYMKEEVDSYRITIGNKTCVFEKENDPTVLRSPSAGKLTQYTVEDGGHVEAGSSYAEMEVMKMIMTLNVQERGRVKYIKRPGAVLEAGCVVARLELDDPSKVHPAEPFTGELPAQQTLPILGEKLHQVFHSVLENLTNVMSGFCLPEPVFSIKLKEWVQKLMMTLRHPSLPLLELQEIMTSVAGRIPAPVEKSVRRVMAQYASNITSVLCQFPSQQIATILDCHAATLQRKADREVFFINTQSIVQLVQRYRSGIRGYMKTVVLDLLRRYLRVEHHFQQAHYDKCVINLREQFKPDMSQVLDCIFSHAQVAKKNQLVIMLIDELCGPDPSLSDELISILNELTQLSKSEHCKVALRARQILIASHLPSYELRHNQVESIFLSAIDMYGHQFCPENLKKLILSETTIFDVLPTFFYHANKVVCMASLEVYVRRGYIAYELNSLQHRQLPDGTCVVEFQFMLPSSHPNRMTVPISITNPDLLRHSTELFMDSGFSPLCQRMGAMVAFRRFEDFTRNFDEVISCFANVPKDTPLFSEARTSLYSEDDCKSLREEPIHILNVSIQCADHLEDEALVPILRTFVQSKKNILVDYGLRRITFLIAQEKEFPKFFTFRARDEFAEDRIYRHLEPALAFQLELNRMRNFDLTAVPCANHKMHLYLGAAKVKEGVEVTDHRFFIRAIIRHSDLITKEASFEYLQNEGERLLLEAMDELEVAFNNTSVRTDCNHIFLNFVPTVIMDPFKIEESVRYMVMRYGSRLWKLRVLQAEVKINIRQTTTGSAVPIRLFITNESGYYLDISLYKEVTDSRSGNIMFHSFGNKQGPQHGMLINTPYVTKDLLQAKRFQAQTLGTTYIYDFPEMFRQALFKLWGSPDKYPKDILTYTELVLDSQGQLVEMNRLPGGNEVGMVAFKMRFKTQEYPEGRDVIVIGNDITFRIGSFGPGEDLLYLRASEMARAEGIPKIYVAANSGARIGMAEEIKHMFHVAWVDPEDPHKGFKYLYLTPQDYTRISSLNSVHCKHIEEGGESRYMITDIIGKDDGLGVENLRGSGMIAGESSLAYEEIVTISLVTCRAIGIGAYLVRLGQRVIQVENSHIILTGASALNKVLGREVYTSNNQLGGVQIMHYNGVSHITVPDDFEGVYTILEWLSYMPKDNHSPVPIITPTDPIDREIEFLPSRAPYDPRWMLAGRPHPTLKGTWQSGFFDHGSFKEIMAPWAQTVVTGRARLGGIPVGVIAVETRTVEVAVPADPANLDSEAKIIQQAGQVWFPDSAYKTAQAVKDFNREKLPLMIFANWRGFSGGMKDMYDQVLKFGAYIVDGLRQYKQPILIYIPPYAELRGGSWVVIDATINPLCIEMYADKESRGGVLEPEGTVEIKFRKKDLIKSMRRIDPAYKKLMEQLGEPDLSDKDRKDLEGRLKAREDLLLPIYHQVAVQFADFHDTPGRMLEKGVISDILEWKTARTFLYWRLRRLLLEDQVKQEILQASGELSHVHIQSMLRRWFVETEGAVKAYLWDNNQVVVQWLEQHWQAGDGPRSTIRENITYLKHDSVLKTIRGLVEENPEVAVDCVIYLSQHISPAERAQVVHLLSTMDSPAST
row,SMILES,IC50
1,COc1cc(OCC2CC2(F)F)cnc1N1CCC(Oc2ccc([C@H](C)NC(C)=O)cc2)C1 (some centres unmarked) [Example 1.81],425 nM
2,Cc1cccc(N2CC[C@@H](Oc3ccc([C@H](C)NC(=O)c4cncs4)cc3)C2)n1 [Example 1.85],107 nM
3,CCOc1ccc(N2CC[C@@H](Oc3ccc([C@H](C)NC(C)=O)cc3)C2)c(OC)n1 [Example 1.128],360 nM
4,CCOc1ccc(N2CCC(Oc3ccc([C@H](C)NC(C)=O)cc3)C2)cn1 (some centres unmarked) [Example 1.5],510 nM
5,CC(=O)N[C@@H](C)c1ccc(O[C@@H]2CCN(c3ccnc(N(C)CC(F)F)c3F)C2)cc1 [Example 1.108],42 nM
6,COc1cc(N2CC[C@@H](Oc3ccc([C@H](C)NC(C)=O)cc3)C2)cnc1OCC1CC1 [Example 1.122],2710 nM
7,CC(=O)N[C@@H](C)c1ccc(OC2CCN(c3ncc(OC4CCCC4)cc3F)C2)cc1 (some centres unmarked) [Example 1.32],50 nM
8,CC(=O)N[C@@H](C)c1ccc(O[C@@H]2CCN(c3ccnc(N4CCCC4)c3Cl)C2)cc1 [Example 1.148],47 nM
9,CC(=O)N[C@@H](C)c1ccc(OC2CCN(c3ccnc(OCC4CC4(F)F)c3)C2)cc1 (some centres unmarked) [Example 1.19],54 nM
10,CC(=O)N[C@@H](C)c1ccc(OC2CCN(c3ccc(OCC(C)(F)F)cn3)C2)cc1 (some centres unmarked) [Example 1.91],661 nM
11,CC(=O)N[C@@H](C)c1ccc(OC2CCN(c3nc(C(F)(F)F)ccc3F)C2)cc1 (some centres unmarked) [Example 1.36],168 nM
12,CC(=O)N[C@@H](C)c1ccc(O[C@@H]2CCN(c3ccnc(NC4CCCC4)c3F)C2)cc1 [Example 1.113],163 nM
13,CC(=O)N[C@@H](C)c1ccc(OC2CCN(c3cc(OCC4CC4(F)F)ncc3F)C2)cc1 (some centres unmarked) [Example 1.76],63 nM
14,C[C@H](NC(=O)N(C)C)c1ccc(OC2CCN(c3ncc(OCC4CC4(F)F)cc3F)C2)cc1 (some centres unmarked) [Example 1.55],154 nM
15,"CC(=O)N[C@@H](C)c1ccc(O[C@@H]2CCN(c3ccnc(C4CC4)c3F)C2)cc1 [Example 15, N—((S)-1-(4-((R)-1-(2-cyclopropyl-fluoropyridin-4-yl)pyrrolidin-3-yloxy)phenyl)-ethyl)-acetamide]",245 nM
16,CC(=O)N[C@@H](C)c1ccc(OC2CCN(c3ccc(OCCC(F)F)cn3)C2)cc1 (some centres unmarked) [Example 1.93],107 nM
17,CC(=O)N[C@@H](C)c1ccc(OC2CCN(c3ncc(OC4CC4)cc3F)C2)cc1 (some centres unmarked) [Example 1.67],463 nM
18,CC(=O)N[C@@H](C)c1ccc(O[C@@H]2CCN(c3ccc(OCC4CC(F)(F)C4)cn3)C2)cc1 [Example 1.123],228 nM
19,CC(=O)N[C@@H](C)c1ccc(OC2CCN(c3ccc(OCC(C)(C)F)cn3)C2)cc1 (some centres unmarked) [Example 1.87],677 nM
20,CC(=O)N[C@@H](C)c1ccc(O[C@@H]2CCN(c3ccnc(NCC(F)F)c3F)C2)cc1 [Example 1.116],177 nM
21,CC(=O)N[C@@H](C)c1ccc(OC2CCN(c3ncc(OCC(F)(F)F)cc3F)C2)cc1 (some centres unmarked) [Example 1.33],504 nM
22,CC(=O)N[C@@H](C)c1ccc(OC2CCN(c3ccc(OCC4CC4(F)F)nc3)C2)cc1 (some centres unmarked) [Example 1.42],219 nM
23,CC(=O)N[C@@H](C)c1ccc(O[C@@H]2CCN(c3ccc(OC[C@@H]4CC4(F)F)cn3)C2)cc1 [Example 1.117],753 nM
24,CCOc1cc(N2CCC(Oc3ccc([C@H](C)NC(C)=O)cc3)C2)c(C)cn1 (some centres unmarked) [Example 1.24],447 nM
25,CC(=O)N[C@@H](C)c1ccc(OC2CCN(c3nc(C)ccc3F)C2)cc1 (some centres unmarked) [Example 1.44],256 nM

# Second part, the compound after the results:
row,IC50,SMILES
1,528 nM,CC(=O)N[C@@H](C)c1ccc(O[C@@H]2CCN(c3cccc(N4CCCOCC4)n3)C2)cc1 [Example 10.40]
2,45 nM,CC(=O)N[C@@H](C)c1ccc(O[C@@H]2CCN(c3ccnc(OC4CCCC4)c3F)C2)cc1 [Example 9.84]
3,76 nM,C[C@H](NC(=O)c1cncs1)c1ccc(OC2CCN(c3ccnc(OCC(F)F)c3)C2)cc1 (some centres unmarked) [Example 2.101]
4,65 nM,CC(=O)N[C@@H](C)c1ccc(O[C@@H]2CCN(c3ccnc(OCC4CC(F)(F)C4)c3)C2)cc1 [Example 9.61]
5,55 nM,CC(=O)N[C@@H](C)c1ccc(O[C@@H]2CCN(c3ccnc(OCC4CC4C#N)c3)C2)cc1 (some centres unmarked) [Example 9.24]
6,75 nM,CCC(C)Oc1cc(N2CC[C@@H](Oc3ccc([C@H](C)NC(C)=O)cc3)C2)ccn1 (some centres unmarked) [Example 9.4]
7,209 nM,CC(C)COc1cc(N2CC[C@@H](Oc3ccc([C@H](C)NC(=O)C4CC4)cc3)C2)ccn1 [Example 9.36]
8,584 nM,CC(=O)N[C@@H](C)c1ccc(O[C@@H]2CCN(c3ccnc(OCc4ccncc4)c3)C2)cc1 [Example 9.35]
9,58 nM,CC(=O)N[C@@H](C)c1ccc(O[C@@H]2CCN(c3ccnc(OCC(C)(F)F)c3F)C2)cc1 [Example 9.85]
10,139 nM,COC(=O)N[C@@H](C)c1ccc(OC2CCN(c3cccc(C(F)(F)F)n3)C2)cc1 (some centres unmarked) [Example 4.2]
11,140 nM,CC(=O)N[C@@H](C)c1ccc(O[C@@H]2CCN(c3ccnc(OCc4cccc(F)c4)c3)C2)cc1 [Example 9.9]
12,552 nM,CC(=O)N[C@@H](C)c1ccc(O[C@@H]2CCN(c3cc(N4CCOCC4)ncc3F)C2)cc1 [Example 10.22]
13,326 nM,C[C@H](NC(=O)C1CC1)c1ccc(O[C@@H]2CCN(c3ccnc(OCC4CC4(F)F)c3)C2)cc1 (some centres unmarked) [Example 9.40]
14,87 nM,CCN(C)c1cc(N2CC[C@@H](Oc3ccc([C@H](C)NC(C)=O)cc3)C2)c(F)cn1 [Example 10.23]
15,61 nM,CC(=O)N[C@@H](C)c1ccc(O[C@@H]2CCN(c3ccnc(OCC(F)F)c3F)C2)cc1 [Example 9.52]
16,204 nM,C[C@H](NC(=O)C(C)(F)F)c1ccc(OC2CCN(c3cccc(C(F)(F)F)n3)C2)cc1 (some centres unmarked) [Example 2.63]
17,389 nM,CC(C)Oc1cc(N2CCC(Oc3ccc([C@H](C)NC(=O)CC#N)cc3)C2)ccn1 (some centres unmarked) [Example 2.7]
18,428 nM,"CC(O)C(=O)N[C@@H](C)c1ccc(OC2CCN(c3cccc(C(F)(F)F)n3)C2)cc1 (stereo partly drawn) [Example 6.1, 2-Hydroxy-N—((S)-1-(4-((R)-1-(6-(trifluoromethyl)pyridin-2-yl)pyrrolidin-3-yloxy)phenyl)ethyl)propanamide]"
19,497 nM,C[C@H](NC(=O)N1CCOCC1)c1ccc(OC2CCN(c3ccnc(OCC(F)F)c3)C2)cc1 (some centres unmarked) [Example 3.13]
20,85 nM,C[C@H](NC(=O)c1cn[nH]c1)c1ccc(OC2CCN(c3ccnc(OCC(F)F)c3)C2)cc1 (some centres unmarked) [Example 2.99]
21,70 nM,Cc1nocc1C(=O)N[C@@H](C)c1ccc(OC2CCN(c3ccnc(OC(C)C)c3)C2)cc1 (some centres unmarked) [Example 2.5]
22,150 nM,CCNC(=O)N[C@@H](C)c1ccc(OC2CCN(c3ccc(OCC4CC4(F)F)cn3)C2)cc1 (some centres unmarked) [Example 3.3]
23,40 nM,CCCOc1nccc(N2CC[C@@H](Oc3ccc([C@H](C)NC(C)=O)cc3)C2)c1F [Example 9.53]
24,235 nM,C[C@H](NC(=O)CC#N)c1ccc(OC2CCN(c3ccc(OCC4CC4(F)F)cn3)C2)cc1 (some centres unmarked) [Example 2.119]
25,55 nM,CCC(=O)N[C@@H](C)c1ccc(OC2CCN(c3ccc(OCC4CC4(F)F)cn3)C2)cc1 (some centres unmarked) [Example 2.33]
26,235 nM,Cc1c(N2CC[C@@H](Oc3ccc([C@H](C)NC(=O)/C=C/C4CC4)cc3)C2)ccnc1OCC1CC1 [Example 9.59]
27,40 nM,CC(=O)N[C@@H](C)c1ccc(O[C@@H]2CCN(c3ccnc(OCC4CCC4)c3)C2)cc1 [Example 9.15]
28,35 nM,CCN(CC)c1nccc(N2CC[C@@H](Oc3ccc([C@H](C)NC(C)=O)cc3)C2)c1F [Example 10.19]
